Tests used:
COX II [1] = molecular target: T1, COX II (Homo sapiens, UniProt P35354); assay: Inhibition of COX II in vitro, partially purified enzyme, radiometric assay; assay type: biochemical; parameters: made in house; details: 20 micromolar arachidonic acid
T1 sequence (P35354 18-604): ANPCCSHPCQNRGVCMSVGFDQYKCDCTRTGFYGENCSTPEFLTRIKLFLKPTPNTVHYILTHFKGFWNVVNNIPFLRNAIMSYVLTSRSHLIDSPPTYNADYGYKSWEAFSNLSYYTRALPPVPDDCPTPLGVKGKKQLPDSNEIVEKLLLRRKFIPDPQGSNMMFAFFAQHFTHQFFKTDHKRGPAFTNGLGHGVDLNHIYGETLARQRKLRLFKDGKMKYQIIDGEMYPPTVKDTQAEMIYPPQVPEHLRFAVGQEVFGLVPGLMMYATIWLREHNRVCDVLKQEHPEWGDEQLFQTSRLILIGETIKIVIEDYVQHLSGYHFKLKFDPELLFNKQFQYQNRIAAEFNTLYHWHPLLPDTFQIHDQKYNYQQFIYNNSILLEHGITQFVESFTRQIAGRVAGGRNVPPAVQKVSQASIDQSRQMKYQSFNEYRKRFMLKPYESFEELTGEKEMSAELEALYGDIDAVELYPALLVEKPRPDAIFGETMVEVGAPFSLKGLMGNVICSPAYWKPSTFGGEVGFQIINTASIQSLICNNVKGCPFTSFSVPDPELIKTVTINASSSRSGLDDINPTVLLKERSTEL
Method: The COX I and COX II inhibitory activity of compounds of this invention in vitro was determined using partially purified COX I and COX II enzymes, prepared as described in J. Barnett et al, Biochim. Biophys.
COX I and COX II samples were diluted with Tris-HCl buffer (50 mM Tris-HCl, pH 7.9) containing 2 mM EDTA and 10% glycerol and reconstituted by incubating first with 2 mM phenol for 5 minutes and then with 1 micromolar hematin for an additional 5 minutes. 125 μl of the reconstituted COX I or COX II enzyme were preincubated for 10 minutes at room temperature in a shaking water bath with the compounds of the invention dissolved in 2-15 μl of DMSO or the carrier vehicles (control samples). The enzyme reaction was initiated by adding 25 μl of 1-[14C]arachidonic acid (80,000-100,000 cpm/tube; 20 micromolar final concentration) and the reaction was allowed to continue for an additional 45 seconds. The reaction was terminated by adding 100 μl of 2N HCl and 750 μl water. An aliquot (950 μl) of the reaction mixture was loaded onto a 1 ml C18 Sep-Pak column (J. T. Baker, Phillipsburg, N.J.) which had been previously washed with 2-3 ml methanol and equilibrated with 5-6 ml distilled water. Oxygenated products were quantitatively eluted with 3 ml of acetonitrile/water/acetic acid (50:50:0.1, v/v) and the radioactivity in the eluate determined in a scintillation counter.

COX I = COX I (Homo sapiens, UniProt P23219); assay: Inhibition of COX I in a cell based assay (human promonocytic THP cells, TXB2 ELISA); parameters: endogenous in cells; host or cells: human promonocytic THP cells, PMA-treated
Method: (§1) The COX I and COX II inhibitory activity of compounds of this invention in a cell based assay was determined as described below.
The inhibitory activity of the test compounds against cell associated COX-1 was measured using human promonocytic THP cells. Cells were plated in 96-well microtiter plates at a density of 8×10^4 cells/well in RPMI-1640 medium (Gibco). COX-1 activity was initiated by incubating the cells with 0.1μM phorbol 12-myristate 13-acetate (PMA, Sigma) in dimethyl sulfoxide (DMSO, Aldrich) at 37° C. After 40-48 hours, the medium was removed, and the cells were washed twice with phosphate buffered saline (PBS, Gibco). 225 μl/well of fresh medium containing desired concentrations of the test compounds in DMSO, or the carrier vehicles (control wells), was added and the cells incubated at 37° C. for 30 minutes; after which 5 μM calcium ionophore A23187 (Sigma) was added and the incubation was continued for an additional 10 minutes. The reaction was terminated by transferring the plates to ice. The culture supernatants were transferred and appropriately diluted and the amount of thromboxane B2 (TXB2) present in each supernatant was quantitated using an ELISA kit (Cayman Chemicals).
(§2) The COX I and COX II inhibitory activities in the cell based assay (expressed as IC50) of some compounds of the invention were: […]

COX II [2] = molecular target: T1, COX II; assay: Inhibition of COX II in a cell based assay (human foreskin fibroblasts, PGE2 ELISA); parameters: host or cells: primary human foreskin fibroblasts (HFF), induced with PMA and human interleukin-1; details: human foreskin fibroblasts (HFF)
Method: as §1
The inhibitory activity of test compounds against cell associated COX-2 was measured using primary cultures of human foreskin fibroblasts (HFF). HFF cultures were obtained from ATCC, grown in DMEM medium (Gibco) and used between 13-30 passages. Cells were plated in 96-well microtiter plates at a density of 6-8×10^4 cells/well in DMEM containing 10% fetal calf serum (Sigma) and cultured at 37° C. until they became confluent. The medium was removed and the cells were washed once with PBS. COX-2 activity was induced by incubating the cells with fresh DMEM containing 0.1 μM phorbol 12-myristate 13-acetate (PMA, Sigma) and 1ng/ml of human interleukin-1 (Sigma) at 37° C. After 16 h the medium was removed and the cells were washed twice with phosphate buffered saline (PBS, Gibco). 200 μl/well of fresh medium containing desired concentrations of the test compounds in DMSO, or the carrier vehicle (control wells) was added and the cells incubated at 37° C. for 30 minutes; after which 5 μM calcium ionophore A23187 (Sigma) was added and the incubation was continued for an additional 10 minutes. The reaction was terminated by transferring the plates to ice. The culture supernatants were transferred and appropriately diluted, and the amount of prostaglandin E2 (PGE2) present in each supernatant was quantitated using an ELISA kit (Cayman Chemicals).
as §2

[3] = Acetic Acid-induced Rat Writhing Assay (analgesic activity); assay type: in vivo; details: 10 mg/Kg, oral, male Sprague Dawley rats
Text: The analgesic activity of compounds of this invention may be determined by the Acetic Acid-induced Rat Writhing Assay, using a modification of the method described in Berkenkopf, J. W. and Weichman, B. M. "Production of Prostacyclin in Mice following Intraperitoneal Injection of Acetic Acid, Phenylbenzoquinone and Zymosan: Its Role in the Writhing Response". Prostaglandins: 36: 693-70 (1988). This assay is one of several acute assays which have been used to assess the analgesic activity of NSAIDs, and is considered predictive of human efficacy. The test materials were administered orally to male Sprague Dawley rats in a volume of 1 ml/100 g body weight as solutions or suspensions in an aqueous vehicle containing 0.9% NaCl, 0.5% sodium carboxymethyl-cellulose, 0.4% polysorbate 80, 0.9% benzyl alcohol and 97.3% water. Control rats received vehicle alone. One hour after compound administration, 0.3 ml/100 g body weight of 0.75% solution of acetic acid was injected intraperitoneally. The acetic acid injection induces a series of characteristic writhing responses, which were counted over the period between 15 and 30 minutes after the injection. The analgesic activity of test materials is expressed as the percentage inhibition of writhing in the test group relative to the control group.

COX I, sequence (P23219 24-599): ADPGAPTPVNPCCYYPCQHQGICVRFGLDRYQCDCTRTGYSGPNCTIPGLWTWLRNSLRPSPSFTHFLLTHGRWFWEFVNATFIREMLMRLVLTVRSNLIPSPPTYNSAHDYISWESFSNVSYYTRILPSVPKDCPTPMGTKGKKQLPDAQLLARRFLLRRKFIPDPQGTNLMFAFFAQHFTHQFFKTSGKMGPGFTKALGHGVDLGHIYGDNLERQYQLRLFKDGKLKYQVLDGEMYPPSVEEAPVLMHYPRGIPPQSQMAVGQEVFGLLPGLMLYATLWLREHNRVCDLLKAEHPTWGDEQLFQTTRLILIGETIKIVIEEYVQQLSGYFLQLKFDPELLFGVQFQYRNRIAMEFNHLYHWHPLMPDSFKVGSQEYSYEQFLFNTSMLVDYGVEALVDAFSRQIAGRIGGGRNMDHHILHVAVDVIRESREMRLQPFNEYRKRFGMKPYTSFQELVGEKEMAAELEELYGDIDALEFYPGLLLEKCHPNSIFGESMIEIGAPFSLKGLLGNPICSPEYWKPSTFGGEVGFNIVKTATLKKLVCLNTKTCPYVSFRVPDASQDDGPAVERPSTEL

IC50 (COX II [1]): 1800 nM
IC50 (COX I): 4800 nM
IC50 (COX II [2]): 2000 nM
Compound: COc1ccc(C(=O)c2cccc(Cc3ccc(=O)[nH]n3)c2C)cc1 [Cpd 11, 6-[3-(4-methoxybenzoyl)-2-methylbenzyl]-2H-pyridazin-3-one]
% inhibition of writhing responses [3]: 10%
